Laboratory results as given in article PMC7567334 (Environmental Health Perspectives, 2020).
Several values for one entry are separate records, joined by “and”; a condition that tells them apart may be missing. Equal entries are not always repeated. Where two headings read alike, the source gives them in different places.

Assays:
[1] = tested on: TRα and TRβ; assay: GH3.TRE-Luc TR reporter assay, antagonist setup (0.25 nM T3); assay type: cell-based, rat
[2] = molecular target: T1, firefly luciferase (Photinus pyralis, UniProt P08659); assay: Luciferase inhibition assay in GH3.TRE-Luc cell lysates; assay type: biochemical; conditions: cell lysate; for inhibition at 50 µM: read-out: inhibition of firefly luciferase luminescence signal
T1 construct: Only implied by 'CP' in the vector name, from my own knowledge; expressed in transfected cells; host or cells: GH3.TRE-Luc cells induced with 0.25 nM T3, lysate
Experimental: Serial dilutions for each treatment were prepared in the cell lysate and incubated at room temperature for 30 min.

[3] = tested on: TRα and TRβ; assay: GH3.TRE-Luc TR reporter assay, agonist setup; assay type: cell-based, rat; conditions: vs 0.1% DMSO
[4] = tested on: AR-EcoScreen cells; assay: Cell viability (resazurin) in AR-EcoScreen cells; conditions: agonist assay
[5] = molecular target: T2, GR (Homo sapiens, UniProt P04150); assay: MDA-kb2 GR reporter assay, antagonist setup (500 nM HC); assay type: cell-based; design: constitutively expressed high levels of functional GR and AR; host or cells: MDA-kb2
T2 sequence (P04150 1-777): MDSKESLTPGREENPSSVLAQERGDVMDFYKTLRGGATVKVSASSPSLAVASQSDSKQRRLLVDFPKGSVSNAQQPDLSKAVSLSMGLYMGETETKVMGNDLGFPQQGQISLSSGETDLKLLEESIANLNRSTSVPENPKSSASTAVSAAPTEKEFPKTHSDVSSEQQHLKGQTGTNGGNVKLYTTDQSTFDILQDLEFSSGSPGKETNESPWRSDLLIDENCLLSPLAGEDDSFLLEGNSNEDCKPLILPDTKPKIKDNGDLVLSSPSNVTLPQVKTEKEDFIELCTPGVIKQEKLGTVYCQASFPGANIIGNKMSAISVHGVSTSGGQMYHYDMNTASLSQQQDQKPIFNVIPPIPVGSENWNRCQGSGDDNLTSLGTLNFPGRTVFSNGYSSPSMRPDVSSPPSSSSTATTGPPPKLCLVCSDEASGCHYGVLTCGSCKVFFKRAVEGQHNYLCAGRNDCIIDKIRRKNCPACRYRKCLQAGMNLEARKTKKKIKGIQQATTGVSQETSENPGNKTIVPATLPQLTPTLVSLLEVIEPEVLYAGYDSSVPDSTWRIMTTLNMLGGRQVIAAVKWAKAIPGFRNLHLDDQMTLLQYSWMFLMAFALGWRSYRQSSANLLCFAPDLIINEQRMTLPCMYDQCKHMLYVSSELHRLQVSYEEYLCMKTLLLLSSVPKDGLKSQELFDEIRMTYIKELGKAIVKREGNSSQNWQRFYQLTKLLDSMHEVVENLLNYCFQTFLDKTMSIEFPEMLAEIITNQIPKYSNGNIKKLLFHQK

[6] = molecular target: T3, human (h)AR (Homo sapiens, UniProt P10275); assay: AR-EcoScreen hAR transcriptional activation assay, antagonist setup (500 pM DHT); assay type: cell-based
T3 sequence (P10275 1-920): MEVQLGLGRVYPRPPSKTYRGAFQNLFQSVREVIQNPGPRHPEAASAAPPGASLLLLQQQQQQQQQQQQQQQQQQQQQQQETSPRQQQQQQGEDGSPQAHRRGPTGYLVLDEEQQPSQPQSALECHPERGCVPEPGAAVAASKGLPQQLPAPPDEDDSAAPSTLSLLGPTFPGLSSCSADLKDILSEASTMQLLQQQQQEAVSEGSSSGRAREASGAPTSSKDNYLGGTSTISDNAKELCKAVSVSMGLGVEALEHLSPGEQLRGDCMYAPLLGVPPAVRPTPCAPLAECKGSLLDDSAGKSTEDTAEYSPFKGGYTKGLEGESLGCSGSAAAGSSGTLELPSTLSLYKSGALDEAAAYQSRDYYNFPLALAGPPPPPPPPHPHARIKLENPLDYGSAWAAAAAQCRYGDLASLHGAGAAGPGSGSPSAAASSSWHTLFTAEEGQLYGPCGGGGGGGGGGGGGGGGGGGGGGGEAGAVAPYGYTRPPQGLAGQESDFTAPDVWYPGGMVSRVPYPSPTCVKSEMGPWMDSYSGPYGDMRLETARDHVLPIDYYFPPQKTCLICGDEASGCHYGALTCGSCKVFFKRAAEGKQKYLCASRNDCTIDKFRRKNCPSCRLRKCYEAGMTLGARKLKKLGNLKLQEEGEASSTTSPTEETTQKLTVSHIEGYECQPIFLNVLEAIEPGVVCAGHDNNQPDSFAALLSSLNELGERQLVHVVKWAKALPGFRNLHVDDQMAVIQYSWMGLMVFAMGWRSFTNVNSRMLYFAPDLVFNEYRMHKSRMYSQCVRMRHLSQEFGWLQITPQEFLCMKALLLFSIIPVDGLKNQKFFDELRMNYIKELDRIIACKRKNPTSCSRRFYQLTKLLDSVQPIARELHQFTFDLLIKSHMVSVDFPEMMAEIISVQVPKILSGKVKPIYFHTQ

[7] = molecular target: Androgen receptor; conditions: ref Rostkowski et al. 2011, cited from earlier work
[8] = molecular target: Androgen receptor; conditions: ref Rostkowski et al. 2011, cited from earlier work; remark: listed apart in the source
[9] = tested on: stickleback AR; design: method as in Lange et al. 2015; conditions: at 10 μM; ref Lange et al. 2015; cited from earlier work
[10] = molecular target: T2, GR; assay: PolarScreen GR Competitor binding affinity assay; design: purchased Invitrogen; conditions: for binding affinity assay on isolated GR, result: in words, tested up to 10 μM
[11] = tested on: hERα-HeLa-9903 cells; assay: Cell viability (resazurin) in hERα-HeLa-9903 cells; conditions: hERα-HeLa-9903, ERα agonist dose-response
[12] = molecular target: T4, AR (Rattus norvegicus, UniProt P15207); assay: PolarScreen AR Competitor binding affinity assay
T4 construct: purchased Invitrogen
T4 sequence (P15207 651-902 limits assumed): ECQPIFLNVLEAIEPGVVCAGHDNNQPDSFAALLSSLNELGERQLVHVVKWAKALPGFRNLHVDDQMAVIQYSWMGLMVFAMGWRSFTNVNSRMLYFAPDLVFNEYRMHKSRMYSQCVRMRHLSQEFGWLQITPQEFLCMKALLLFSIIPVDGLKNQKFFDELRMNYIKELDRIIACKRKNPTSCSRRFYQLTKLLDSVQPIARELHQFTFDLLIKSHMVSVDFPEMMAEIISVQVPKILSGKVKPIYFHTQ

[13] = tested on: AroB transcription; conditions: 1 nM E2 alone; zebrafish embryos; ref Chung et al. 2011; cited from earlier work
[14] = tested on: Glucocorticoid receptor; conditions: MDA-kb2 at 5 μM; ref Kolšek et al. 2014a; cited from earlier work
[15] = molecular target: T2, GR; assay: MDA-kb2 GR reporter assay, agonist setup (with FLU); assay type: cell-based; design: constitutively expressed high levels of functional GR and AR; host or cells: MDA-kb2; conditions: 10 μM; vs 0.1% DMSO with 5 μM FLU
[16] = ref Sandborgh-Englund et al. 2006, cited from earlier work
[17] = tested on: Thyroid receptor; conditions: ZFL cell line; ref Zhou et al. 2017; cited from earlier work
[18] = 0.25 nM T3; read-out: TR antagonist IC50

T1 sequence (P08659 whole entry): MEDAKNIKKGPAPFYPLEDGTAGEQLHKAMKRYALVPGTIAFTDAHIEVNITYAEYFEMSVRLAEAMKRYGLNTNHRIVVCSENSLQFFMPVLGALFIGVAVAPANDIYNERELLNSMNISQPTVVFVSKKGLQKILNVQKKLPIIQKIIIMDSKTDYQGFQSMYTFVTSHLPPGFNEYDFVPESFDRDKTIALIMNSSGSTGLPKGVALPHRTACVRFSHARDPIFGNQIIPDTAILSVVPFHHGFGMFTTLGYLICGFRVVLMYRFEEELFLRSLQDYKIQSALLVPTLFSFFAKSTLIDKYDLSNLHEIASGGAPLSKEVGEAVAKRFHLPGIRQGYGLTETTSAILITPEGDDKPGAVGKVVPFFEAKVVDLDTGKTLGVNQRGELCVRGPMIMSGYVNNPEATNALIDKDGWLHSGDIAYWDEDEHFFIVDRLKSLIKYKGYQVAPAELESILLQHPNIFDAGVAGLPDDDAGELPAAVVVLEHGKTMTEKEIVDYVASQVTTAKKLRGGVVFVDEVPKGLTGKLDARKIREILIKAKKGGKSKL

CC(C)(c1ccc(O)cc1)c1ccc(O)cc1 [BPA, bisphenol A, reference compound]
IC50 ([1]; read-out: TR antagonist IC50; 0.25 nM T3): 41900 nM

Oc1c(Br)cc(Cl)cc1Cc1cc(Cl)cc(Br)c1O [Bromochlorophene, 2,2’-methylenebis(6-bromo-4-chlorophenol)]
inhibition of firefly luciferase luminescence signal ([2]; 50 μM): 26.1% | baseline TR-mediated transcriptional activity lower than vehicle control (agonist setup) ([3]; 1 μM): > 50% | baseline TR-mediated transcriptional activity lower than vehicle control (agonist setup) ([3]; 10 μM): > 50% | highest noncytotoxic concentration [4]: 2.5 µM | IC50 [1, 18]: 500 nM and 510 nM | lower TR RTA than spike-in control ([1]; 10 μM; vs 0.1% DMSO with 0.25 nM T3): 92.9% | TR antagonist activity, call ([1]; GH3.TRE-Luc): Antagonist

Oc1ccc(Cl)cc1Cc1ccccc1 [Chlorophene, 2-Benzyl-4-chlorophenol]
GR activity in MDA-kb2 cell line, call ([5]; 10 μM): Negative | lower AR RTA than spike-in control ([6]; 10 μM, vs 0.1% DMSO with 500 pM DHT): > 90% | IC50 ([6]; AR antagonist IC50, AR-EcoScreen, 500 pM DHT): 2360 nM and 2400 nM | AR antagonist activity, call ([6]; AR-EcoScreen): Antagonist | IC50 ([7]; antiandrogenic, read-out: AR-CALUX IC50): 800 nM | effect on AR in AR-CALUX assay [7]: Antagonist in AR-CALUX assay ([Rostkowski et al. 2011]) | inhibition at 50 µM [2]: ~12% | IC50 ([8]; antiandrogenic, read-out: anti-YAS IC50): 540 nM | effect on AR, yeast based assay [8]: Antagonist ([Rostkowski et al. 2011]) | effect on stickleback AR [9]: Antagonist at 10μM in a stickleback AR reporter assay ([Lange et al. 2015]) | TR antagonist activity, call ([1]; GH3.TRE-Luc): Antagonist | concentration with TR antagonist activity ([1]; GH3.TRE-Luc): 10 µM | binding affinity assay on isolated GR, result [10]: positive | EC50 ([10]; read-out: binding to isolated GR, EC50): 10500 nM | highest tested concentration as limited by precipitation and cytotoxicity [11]: 50 µM | EC50 [12]: 2160 nM | binding affinity assay on isolated AR, result ([12]; in words, tested up to 10 μM): positive

C[C@]12CC[C@@H]3c4ccc(O)cc4CC[C@H]3[C@@H]1CC[C@@H]2O [E2, 17β-estradiol, reference compound]
increase in AroB transcription [13]: 8 fold

Oc1cc(Cl)ccc1Oc1ccc(Cl)cc1Cl [Triclosan, 5-Chloro-2-(2,4-dichlorophenoxy) phenol]
lower GR RTA than spike-in control ([5]; 10 μM, vs 0.1% DMSO with 500 nM HC): 53.2% | GR antagonist activity, call ([5]; MDA-kb2): Antagonist | effect on GR [14]: No effect in MDA-kb2 at 5μM ([Kolšek et al. 2014a]) | inhibition at 50 µM [2]: ~12% | baseline TR-mediated transcriptional activity lower than vehicle control (agonist setup) ([3]; 10 μM): > 50% | effect on stickleback AR [9]: Antagonist at 10μM in stickleback AR reporter assay ([Lange et al. 2015]) | IC50 [1, 18]: 3600 nM and 3610 nM | lower TR RTA than spike-in control ([1]; 5 μM; vs 0.1% DMSO with 0.25 nM T3): 71.9% | TR antagonist activity, call ([1]; GH3.TRE-Luc): Antagonist | concentration with TR antagonist activity ([1]; GH3.TRE-Luc): 5 µM | lower GR RTA than vehicle control (agonist assay) [15]: 53.6% | peak plasma concentration ([16]; 10 healthy volunteers, single dose of mouthwash): 0.5 to 1.2 µM | preexperiment median plasma baseline concentration ([16]; 10 healthy volunteers): 5.5 nM | time of plasma peak after exposure [16]: up to 3 h | EC50 [10]: 27300 nM | binding affinity assay on isolated GR, result [10]: positive | effect on TR [17]: No effect in ZFL cell line ([Zhou et al. 2017])
